Numbered stars: 1 amine (or outer) side, 2 acyl side, 3 side chain; on linkers, the order of the positions; unused ones are H or OH. Bridge positions count the residues as written; N and C are the ends. Square brackets hold non-standard residues; d marks the D form. Peptide text beside a SMILES is read from it. * marks the point of attachment. X1 = O=C([C@H](CCCCCC=[*:3])N[*:1])[*:2]; Nle = CCCC[C@H](N)C(=O)O; BrAc = O=C(CBr)*
How the values were obtained:
[1] = test system: E. coli lptD4213 (imp) cells; experiment: Microscopy and morphology assay (cell length); assay type: cell-based; conditions: 17fα 100 μM
Method: 1.8 Microscopy and morphology assay
Morphology assays were executed to assess the physiological change of E.coli cells upon exposure to different peptides. All steps in this protocol were performed under sterile conditions. For each assay, 20 mL of fresh MOPS medium was prepared (40 mM MOPS, 4 mM tricine, 0.01 mM FeSO-4, 9.5 mM NH4Cl, 0.276 mM K2SO4, 0.5 […]
The next day, the overnight culture […]
was diluted to an OD600 of 0.1. […]
min, after which the supernatant was discarded.
The frozen samples were thawed and 3 μL of […]
morphology of the cells was investigated. […]
accessed on February 2020).
The FtsQ(50˗276) stock solution was diluted to
NH4HCO3 (pH 7.6), 150 mM NaCl).
The gel was placed in the container
Colloidal Coomassie staining solution […]
was washed 3x for 30 min with water.
The gel pieces were washed with 200 μL water by vortex mixing for 30 s. Then the water was discarded. The gel pieces were then washed with […]
discarded and the procedure repeated once.
The supernatants were discarded and 200 μL of 100 %
ACN added, mixed and incubated for 30 s. […] They were then

[2] = test system: FtsB-mNG localization in E. coli lptD4213 (imp); experiment: Localization of FtsB-mNG (fluorescence microscopy); assay type: cell-based; conditions: peptide c = 100 μM, 60 min after addition, MOPS rich medium, 37 °C
Method: were incubated for 1 h at 50 °C. The condensates were collected by centrifuging for 10 s. The digests were mixed for a few seconds and transferred to another tube. 0.5 % TFA was added to inactivate trypsin. The samples were […]
E.coli mutant lptD4213 (imp)
MOPS: MOPS EZ Rich Defined Medium Kit M2105 (Teknova).
At the end of the day, the cells
The next day, the cells were grown and diluted […]
objective. […] In all experiments, the cells […]
ex470/40, dic495LP, em525/50).

FtsQ(50–276) = FtsQ(50–276) (Escherichia coli, UniProt P06136); experiment: LC/MS analysis of modified FtsQ(50–276); assay type: biochemical, E. coli; set-up: pET16b FtsQ(50˗276), a His6 fusion; made in house; host or cells: Escherichia coli BL21 DE3; conditions: HPLC/MS, deconvolution; expected for reaction with 1 equiv ΔMW = 2122 g/mol; 37 °C, NH4HCO3 buffer pH 7.6
Sequence of FtsQ(50–276) (P06136 50-276): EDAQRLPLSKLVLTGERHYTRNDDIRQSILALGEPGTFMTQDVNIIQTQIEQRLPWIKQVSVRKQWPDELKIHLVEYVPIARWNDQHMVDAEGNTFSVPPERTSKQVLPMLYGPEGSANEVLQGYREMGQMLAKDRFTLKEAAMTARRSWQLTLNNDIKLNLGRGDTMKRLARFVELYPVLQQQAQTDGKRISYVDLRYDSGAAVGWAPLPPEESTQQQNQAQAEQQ
Method: 1.6 LC/MS-analysis of modified FtsQ(50˗276)
To determine the reactivity of 17fα, FtsQ(50˗276) was diluted to a concentration of 100 μM in 20 mM NH4HCO3 buffer (pH 7.6, 150 mM NaCl). The peptide 17fα was diluted to a concentration of 250 μM in the same buffer.
Equal volumes of both solutions were mixed and incubated at 37 °C for the given time period (1 h or 3 h). The reaction was quenched by 4-fold dilution in ACN/H2O (1:1) + 0.1 % TFA.
20 μL of the resulting solution were injected and analysed by analytical reverse-phase HPLC (1260 Infinity II, Agilent Technology; flow rate of 0.3 mL·min-1, A: water with 0.1% FA, B: 80% iPrOH, 10% ACN, 10% H2O with 0.1% FA; AdvanceBio RP-mAB C4 column, 2.1×50 mm, 3.5 µm particle size) using a 10 min gradient (20-80% B) coupled to a mass spectrometer (Infinity Lab LC/MSD XT, Agilent Technology) using API-ES (MSD signal settings: Polarity: Positive; scan mass range: 500-3000; Fragmentor 70). Analytical HPLC chromatograms at 210 nm and MS spectra, masses and m/z ratios are shown in the appendix – analytics part. […]
Morphology assays were executed to assess the physiological change of E.coli cells upon exposure to different peptides. All steps in this protocol were performed under sterile conditions. For each assay, 20 mL of fresh MOPS medium was prepared (40 mM MOPS, 4 mM tricine, 0.01 mM FeSO-4, 9.5 mM NH4Cl, 0.276 mM K2SO4, 0.5

E. coli 87 = experiment: Zebrafish larvae infection model (E. coli 87 expressing mScarlet); assay type: in vivo, zebrafish (Danio rerio) larvae; conditions: L8S1 3.125 μM, 17fα 70 μM, 15 zebrafish per condition
Method: 1.13 Microinjection of zebrafish larvae with E.coli 87 expressing mScarlet Transparent Casper zebrafish (Danio rerio) larvae were infected and treated according to protocols described by Van der Sar et al. and Bernard et al..7,8 In brief, zebrafish larvae collected from a laboratory-breeding colony kept at 24 °C and a 12:12 h dark/light regime. Larvae were selected based on morphology according to hours post fertilization (hpf) and kept at 28 °C. All protocols followed the international guidelines on the protection of animals used for scientific purposes specified by the EU Directive 2010/63/EU, which allows zebrafish larvae to be used up to the moment of free-living (5–7 dpf). Larvae were dechorionated at 28 hpf and anaesthetized in 0.2% tricaine methanesulfonate (MS222, Fluka A-5040). Larvae were individually infected with 1 nL, containing approximately 150-200 CFU ([…]), of mScarlet expressing clinical isolate E. coli 87 via microinjection of the caudal vein as described previously.9 One hour post infection, larvae were treated with L8S1, 17fα or a combination of the two via another microinjection of 1 nL in the caudal vein. To correct dilution of the treatment upon injection in the vein (1 nL in 250 nL zebrafish larvae volume), treatments were diluted in 0.1% phenol red (Sigma-Aldrich, p-0290) in phosphate buffered saline (PBS) to 250x the concentration as tested in vitro. Zebrafish larvae were kept at 30 °C throughout the experiment and survival of the larvae, based on heartbeat, was determined every 24 h for 2 d. Moreover, 18 h post infection larvae were anaesthetized using MS222 and bacterial load was determined using an Olympus IX83 fluorescence microscope (4x objective magnification, Hamamatsu ORCA-Flash 4.0 camera) at specific wavelength for detection of red fluorescence (excitation/emission, 580/610 nm). Obtained images were analyzed using CellProfiler 3.19 (Broad Institute, Cambridge, MA, USA) with a custom-made automated analysis pipeline to count and quantify pixel intensity within the larvae. Integrated red fluorescence intensity per larvae was used as a quantification of bacterial burden.

CCCC[C@@H]1NC(=O)[C@H](CO)NC(=O)[C@H](CC(C)C)NC(=O)[C@H](CCC(=O)O)NC(=O)[C@H](CC(N)=O)NC(=O)[C@@H](NC(=O)[C@H](C)NC(C)=O)CCCCCC=CCCCCC[C@@H](C(=O)N[C@@H](CCCCNC(=O)CBr)C(=O)N[C@@H](Cc2ccccc2)C(=O)N[C@@H](Cc2ccc(O)cc2)C(=O)N[C@@H](CCCNC(=N)N)C(=O)N[C@@H](CC(C)C)C(N)=O)NC(=O)CNC(=O)[C@@H]2CCCN2C(=O)[C@H](CCCNC(=N)N)NC(=O)[C@H]([C@@H](C)O)NC1=O [17fα] (Ac-A[X1]NELS[Nle]TRPG[X1]K(BrAc)FYRL-NH2; staple 2-12)
cell length median (1h) ([1]; 1 h): 4.7 μm | cell length mean (1h) ([1]; 1 h, phase contrast microscopy, ImageJ/ObjectJ): 5.3 μm | cell length mean (6h) ([1]; 6 h): 12.4 μm | cell length median (6h) ([1]; 6 h): 11.3 μm | FtsB-mNG midcell localization [2]: loss of midcell localization | ΔMW of FtsQ(50–276) after treatment (obtained mass difference) (FtsQ(50–276)): 2124 g/mol | Survival rate of zebrafish larvae after 24 h (mean ± SD) (E. coli 87; infected with E. coli 87 (189 CFU), treated 1 h post infection by microinjection, survival by heartbeat, n = 4 replicates, SD): 20.0 ±16.3 | Survival rate of zebrafish larvae after 24 h, replicate #1 (E. coli 87; replicate #1, E. coli 87 (189 CFU)): 0 | Survival rate of zebrafish larvae after 24 h, replicate #2 (E. coli 87; replicate #2, E. coli 87 (189 CFU)): 40 | Survival rate of zebrafish larvae after 24 h, replicate #3 (E. coli 87; replicate #3, E. coli 87 (189 CFU)): 20 | Survival rate of zebrafish larvae after 24 h, replicate #4 (E. coli 87; replicate #4, E. coli 87 (189 CFU)): 20
